From ChEMBL document CHEMBL1142185, “Posaconazole enhances the activity of amphotericin B against Aspergillus hyphae in vitro” (2007)
Converted amounts (≈) assume the structure as drawn.

Assays:
Assay type in all cases: functional
[1] = system: Aspergillus niger; experiment: Antifungal activity against Aspergillus niger conidia
[2] = system: Aspergillus terreus; experiment: Antifungal activity against Aspergillus terreus hyphae
[3] = system: Aspergillus niger; experiment: Antifungal activity against Aspergillus niger hyphae
[4] = system: Aspergillus fumigatus; experiment: Antifungal activity against Aspergillus fumigatus hyphae
[5] = system: Aspergillus fumigatus; experiment: Antifungal activity against Aspergillus fumigatus conidia
[6] = system: Aspergillus terreus; experiment: Antifungal activity against Aspergillus terreus conidia
[7] = system: Aspergillus flavus; experiment: Antifungal activity against Aspergillus flavus hyphae
[8] = system: Aspergillus flavus; experiment: Antifungal activity against Aspergillus flavus conidia

Structure (SMILES)	MIC90 [1] [µg/mL]	MIC90 [2] [µg/mL]	MIC90 [3] [µg/mL]	MIC90 [4] [µg/mL]	MIC90 [5] [µg/mL]	MIC90 [6] [µg/mL]	MIC90 [7] [µg/mL]	MIC90 [8] [µg/mL]
C[C@@H]1[C@H](O)[C@@H](C)/C=C/C=C/C=C/C=C/C=C/C=C/C=C/[C@H](O[C@@H]2O[C@H](C)[C@@H](O)[C@H](N)[C@@H]2O)C[C@@H]2O[C@](O)(C[C@@H](O)C[C@@H](O)[C@H](O)CC[C@@H](O)C[C@@H](O)CC(=O)O[C@H]1C)C[C@H](O)[C@H]2C(=O)O [AMPHOTERICIN B]	1.25 (≈ 1.35 µM)	5 (≈ 5.41 µM)	5 (≈ 5.41 µM)	2.5 (≈ 2.71 µM)	0.625 (≈ 0.676 µM)	2.5 (≈ 2.71 µM)	2.5 (≈ 2.71 µM)	1.25 (≈ 1.35 µM)
CC[C@@H]([C@H](C)O)n1ncn(-c2ccc(N3CCN(c4ccc(OC[C@@H]5CO[C@@](Cn6cncn6)(c6ccc(F)cc6F)C5)cc4)CC3)cc2)c1=O [POSACONAZOLE]	0.25 (≈ 0.357 µM)	1 (≈ 1.43 µM)	1 (≈ 1.43 µM)	0.5 (≈ 0.713 µM)	0.125 (≈ 0.178 µM)	0.25 (≈ 0.357 µM)	0.5 (≈ 0.713 µM)	0.125 (≈ 0.178 µM)
C[C@@H](c1ncncc1F)[C@](O)(Cn1cncn1)c1ccc(F)cc1F [VORICONAZOLE]	0.5 (≈ 1.43 µM)	1 (≈ 2.86 µM)	2 (≈ 5.73 µM)	1 (≈ 2.86 µM)	0.125 (≈ 0.358 µM)	0.5 (≈ 1.43 µM)	2 (≈ 5.73 µM)	0.5 (≈ 1.43 µM)
